Assay results: US20080081041A1 (priority 2006, published 2008)
Like-named read-outs stand apart in the source and are kept apart here.

B1: CNTO 328: an anti-IL-6 monoclonal antibody, derived from the CLB-8 anti-IL-6 antibody (antibody, chains of the INN, looked up, V domains shown)
VH: EVQLVESGGKLLKPGGSLKLSCAASGFTFSSFAMSWFRQSPEKRLEWVAEISSGGSYTYYPDTVTGRFTISRDNAKNTLYLEMSSLRSEDTAMYYCARGLWGYYALDYWGQGTSVTVSS
VL: QIVLIQSPAIMSASPGEKVTMTCSASSSVSYMYWYQQKPGSSPRLLIYDTSNLASGVPVRFSGSGSGTSYSLTISRMEAEDAATYYCQQWSGYPYTFGGGTKLEIK

Key:
DU145 cells = experiment: DU145 cell killing, ATPlite assay (ATP production); type: cell-based, human; details: for timecourse of cell killing / EC50 / effect on sensitivity / resistance of the cells to mitoxantrone: DU145 cells; for EC50: Homo sapiens, DU-145, read-out: EC50 values for killing by Mitoxantrone, CNTO 328 at 20 μg/mL where combined; for effect on sensitivity / resistance of the cells to mitoxantrone: 48 and 72 hour timepoints
Experimental: DU145 cells were established from a metastatic central nervous system lesion of androgen-independent prostate carcinoma (Stone, K. R. et al. 1978 Int J Cancer 21: 274-81). […] Thus, study of direct interactions of chemotherapy agents and IL6 modulators can be studied on prostate tumor cells in vitro.
DU145 cells were plated at 500 cells/well in a 96 well plate and allowed to adhere for several hours. Treatments were added and plates were incubated at 37° C. for either 24, 48, or 72 hours. […] CNTO 328 was tested at 20 μg/mL and IL-6 was tested at both 10 and 50 ng/mL. Plates were analyzed for ATP production using the ATPlite assay from Perkin Elmer.

[1] = tested on: DU-145 human prostate xenograft; experiment: DU-145 human prostate xenograft in nude mice, time to tumor volume of 1000 mm3; type: in vivo; details: for % TGD (tumor growth delay): [(T-C)/C]×100, versus PBS Group 1; for tumor growth delay vs. control (in words): monotherapy versus Group 1; for T-C (difference between median TTE of treated versus control group): same dosing, versus PBS Group 1; for Median TTE: time to tumor volume 1000 mm3, CNTO328 10 mg/Kg i.p. biweekly, Mitoxantrone 0.75 mg/Kg i.v. once per D for 5 D, n=8
Source text: Nude mice were implanted subcutaneously with 1 mm3 fragments of DU-145 human prostate xenograft tissue. […] Dosing was initiated on Day 1 as follows: […] The study endpoint was the time taken for tumors to reach a volume of 1000 mm3 at which time each animal was euthanized. Days in Progress=56. Calculation using the TTE=time to endpoint are: T−C=difference between median TTE (days) of treated versus control group, TGD=tumor growth delay. % TGD=[(T-C)/C]×100. The Logrank test was used to analyze the significance of the differences between the TTE values of treated and control groups. Two-tailed statistical analyses were conducted at significance level P-0.05. Statistical Significance: ns=not significant, **=P<0.01 compared to group indicated.

metastatic HRPC = details: docetaxel every 3 weeks; cited from earlier work
human prostate tumor = details: human prostate tumor-bearing mice; cited from earlier work

| Molecule | % TGD (tumor growth delay) [1] [%] | tumor growth delay vs. control (in words) [1] | T-C (difference between median TTE of treated versus control group) [1] [days] | Median TTE [1] [days] | effect on sensitivity / resistance of the cells to mitoxantrone (DU145 cells) | other results |
| --- | --- | --- | --- | --- | --- | --- |
| O=C1c2c(O)ccc(O)c2C(=O)c2c(NCCNCCO)ccc(NCCNCCO)c21 [Mitoxantrone, 1,4-Dihydroxy-5,8-bis[[2-[(2-hydroxyethyl)amino]ethyl]amino]-9,10-anthracenedione] | 29 | no significant tumor growth delay | 6.2 | 27.7 |  | timecourse of cell killing (DU145 cells; 48 and 72 hours (FIG. 1)): greatest reduction in cell survival; timecourse of cell killing (DU145 cells; 24 hours (FIG. 1)): minimal cell death; EC50 (DU145 cells; 48 Hours): 23 nM; EC50 (DU145 cells; 72 Hours): 10.8 nM; mean body weight nadir ([1]; day 10): −5% |
| CC(=O)O[C@@]12CO[C@@H]1C[C@H](O)[C@@]1(C)C(=O)[C@H](O)C3=C(C)[C@@H](OC(=O)[C@H](O)[C@@H](NC(=O)OC(C)(C)C)c4ccccc4)C[C@@](O)([C@@H](OC(=O)c4ccccc4)[C@H]21)C3(C)C [docetaxel] |  |  |  |  |  | improvement of survival over the reference M/P regimen (metastatic HRPC): 2-2.5 months |
| IL-6: 22-27 kDa secreted glycoprotein cytokine, added exogenously |  |  |  |  | did not increase resistance to the effect of mitoxantrone |  |
| B1 | −21 | no significant tumor growth delay | -4.6 | 16.9 | does not significantly alter the sensitivity of the cells to mitoxantrone | proliferation of the DU145 cells (DU145 cells; agent alone (not shown)): ineffective at reducing proliferation; effect of monotherapy on tumor and survival (human prostate tumor): block conversion to androgen independent growth, induce tumor apoptosis, and prolong survival |
